Experimental findings from ChEMBL document CHEMBL1150657, “Assessment of the antiprotozoal activity of Galphimia glauca and the isolation of new nor-secofriedelanes and nor-friedelanes” (J Nat Prod, 2002) are described below.

pIC50: −log10 of the molar value. Bounds are passed on as bounds.

In one experiment the test system is Plasmodium falciparum. The experiment in a line: Antiprotozoal activity against Plasmodium falciparum K1. The format is functional, organism-based.
Experiment [1] deals with Trypanosoma brucei brucei. Put plainly: Antitrypanosomal activity against Trypanosoma brucei brucei S427 blood stream trypomastigotes. The format is functional, organism-based.
The next experiment deals with KB. Put plainly: Cytotoxicity against human KB cells. The format is cell-based.
Another experiment deals with Leishmania donovani. The experiment in a line: Antileishmanial activity against Leishmania donovani (MHOM/ET/67/L82) promastigotes. The format is functional, organism-based.

With `C=C1C[C@H](C(=O)OC)[C@]2(C)CC[C@]3(C)[C@H]4[C@H](O)[C@@H](O)[C@]5(COC(C)=O)[C@@H](C)[C@@H](OC(C)=O)CC[C@H]5[C@]4(C)CC[C@@]3(O)[C@]2(O)C1` [GALPHIMIDIN], the pIC50 (with Plasmodium falciparum; in experiment [1]; with KB; with Leishmania donovani) was less than 4.00 each time.
For the compound `CC[C@H](/C=C/[C@@H](C)[C@H]1CC[C@H]2[C@@H]3CC=C4C[C@@H](O[C@@H]5O[C@H](CO)[C@@H](O)[C@H](O)[C@H]5O)CC[C@]4(C)[C@H]3CC[C@]12C)C(C)C` [STIGMASTEROL GLUCOSIDE], the pIC50 (in the experiment with Plasmodium falciparum; in experiment [1]; in the experiment on KB; in the experiment on Leishmania donovani) was less than 4.00 in each case.
On to `CCN(CC)CCCC(C)Nc1ccnc2cc(Cl)ccc12` (stereo not drawn) [CHLOROQUINE], for which the IC50 (commonly the concentration needed to halve the response being measured) in the experiment on KB amounted to 51.4 µg/mL.
In the experiment on KB, `COc1cc([C@@H]2c3cc4c(cc3[C@H](O)[C@H]3COC(=O)[C@H]23)OCO4)cc(OC)c1OC` [PODOFILOX] displayed an IC50 of 0.00621 µg/mL.
Regarding `O=c1c(O)c(-c2ccc(O)c(O)c2)oc2cc(O)cc(O)c12` [QUERCETIN], the IC50 in the experiment with Plasmodium falciparum was 6.5 µg/mL; in experiment [1] it was 4.5 µg/mL; with KB, 136 µg/mL; with Leishmania donovani, 29.5 µg/mL.
Regarding `C=C1CC[C@]2(C)CC[C@]3(C)[C@H]4[C@H](OC(C)=O)C[C@]5(COC(C)=O)[C@@H](C)OC(=O)[C@H]6O[C@H]6[C@H]5[C@]4(C)CC[C@@]3(C(=O)OC)[C@]2(O)C1` [GALPHIN A], the pIC50 (in the experiment on Plasmodium falciparum; in experiment [1]; in the experiment on KB; with Leishmania donovani) was less than 4.00 each time.
Take `CC[C@H](/C=C/[C@@H](C)[C@H]1CC[C@H]2[C@@H]3CC=C4C[C@@H](O)CC[C@]4(C)[C@H]3CC[C@]12C)C(C)C` [STIGMASTEROL]: the pIC50 (with Plasmodium falciparum; in experiment [1]; in the experiment on KB; with Leishmania donovani) was less than 4.00 throughout.
`N=C(N)c1ccc(OCCCCCOc2ccc(C(=N)N)cc2)cc1` [PENTAMIDINE]: the IC50 was determined as 0.0006 µg/mL in experiment [1], 0.11 µg/mL with KB and 0.24 µg/mL in the experiment on Leishmania donovani.
`C=C1C[C@@H](OC(C)=O)[C@]2(C)CC[C@]3(C)[C@H]4[C@H](OC(C)=O)C[C@]5(COC(C)=O)[C@@H](C)OC(=O)[C@H]6O[C@H]6[C@H]5[C@]4(C)CC[C@@]3(C(=O)OC)[C@]2(O)C1` [GALPHIN B]: the pIC50 (in the experiment on Plasmodium falciparum; in experiment [1]; in the experiment on KB; in the experiment on Leishmania donovani) was less than 4.00 each time.
With `C=C1C[C@@H](OC(C)=O)[C@]2(C)CC[C@]3(C)[C@H]4[C@H](OC(C)=O)C[C@]5(COC(C)=O)[C@@H](C)OC(=O)[C@H]6O[C@H]6[C@H]5[C@]4(C)C[C@H](OC(C)=O)[C@@]3(C(=O)OC)[C@]2(O)C1` [GALPHIN C], the pIC50 (in the experiment on Plasmodium falciparum; in experiment [1]; in the experiment on KB; in the experiment on Leishmania donovani) was less than 4.00 each time.
